The text below walks through data of US20220056019A1, “FARNESOID X RECEPTOR AGONISTS AND USES THEREOF” (Metacrine, Inc., priority 2018, published 2022).

Bounds are passed on as bounds.

For the test, the target named is T1, hFXR (Homo sapiens, UniProt Q96RI1).
T1 construct: expressed in transfected cells; host or cells: CV-1 cells
T1 sequence (Q96RI1 1-486): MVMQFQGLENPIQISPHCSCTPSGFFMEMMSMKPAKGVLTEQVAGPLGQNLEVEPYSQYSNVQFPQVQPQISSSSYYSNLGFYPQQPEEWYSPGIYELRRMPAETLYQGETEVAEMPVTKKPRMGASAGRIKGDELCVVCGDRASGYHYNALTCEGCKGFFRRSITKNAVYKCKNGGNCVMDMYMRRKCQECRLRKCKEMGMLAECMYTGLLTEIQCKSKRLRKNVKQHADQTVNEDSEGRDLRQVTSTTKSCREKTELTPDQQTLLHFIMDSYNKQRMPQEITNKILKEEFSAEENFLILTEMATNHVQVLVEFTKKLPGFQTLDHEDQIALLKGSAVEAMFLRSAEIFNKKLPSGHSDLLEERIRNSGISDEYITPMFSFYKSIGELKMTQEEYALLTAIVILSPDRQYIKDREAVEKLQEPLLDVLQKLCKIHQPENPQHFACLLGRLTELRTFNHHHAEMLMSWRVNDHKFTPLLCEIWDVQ
T1 sequence (P19793 1-462 partner): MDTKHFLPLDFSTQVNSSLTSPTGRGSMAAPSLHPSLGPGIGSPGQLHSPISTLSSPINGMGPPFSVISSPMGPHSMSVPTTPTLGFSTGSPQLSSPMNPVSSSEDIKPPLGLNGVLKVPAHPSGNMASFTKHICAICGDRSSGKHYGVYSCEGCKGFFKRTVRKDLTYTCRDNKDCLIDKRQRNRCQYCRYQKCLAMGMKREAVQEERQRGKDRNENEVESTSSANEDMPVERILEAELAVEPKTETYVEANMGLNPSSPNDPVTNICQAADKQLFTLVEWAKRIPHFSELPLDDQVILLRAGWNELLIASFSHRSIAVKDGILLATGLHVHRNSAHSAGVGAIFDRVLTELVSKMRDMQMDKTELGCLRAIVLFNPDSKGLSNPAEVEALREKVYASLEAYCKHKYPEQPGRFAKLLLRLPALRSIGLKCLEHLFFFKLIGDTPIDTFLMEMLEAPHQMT
The experiment in a line: In Vitro FXR Assay (TK): TK-ECRE-luc reporter in transfected CV-1 cells. The following applies: 18 hrs incubation, luminescence. In kind it is cell-based. The essentials: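 Reporter gene assay: CV-1 cells co-expressing hFXR, hRXR, TK-ECRE-luc and pCMX-YFP after overnight transfection in charcoal-stripped serum. Treatment with serially diluted compounds lasted 18 hrs at 37 °C, followed by cell lysis and a luminescence measurement.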
`COc1ccc(C23CCC(CN(c4cc(-c5nnc(C(C)C)o5)ccn4)C(=O)[C@H]4CC[C@H](OC(=O)N5CC(O)C5)CC4)(CC2)CC3)cc1C` [Compound 26.12, 4-((4-(5-Isopropyl-1,3,4-oxadiazol-2-yl)pyridin-2-yl)((4-(4-methoxy-3-methylphenyl)bicyclo[2.2.2]octan-1-yl)methyl)carbamoyl)cyclohexyl trans-3-hydroxyazetidine-1-carboxylate]: the EC50 lay in the range of 50 to 1000 nM.
`COc1ccc(C23CCC(CN(c4cc(-c5cnn(C(C)C)c5)ncn4)C(=O)[C@H]4CC[C@H](OC(=O)N5CC(CS(C)(=O)=O)C5)CC4)(CC2)CC3)cc1C` [Compound 23.21, 4-((6-(1-Isopropyl-1H-pyrazol-4-yl)pyrimidin-4-yl)((4-(4-methoxy-3-methylphenyl)bicyclo[2.2.2]octan-1-yl)methyl)carbamoyl)(trans-cyclohexyl) 3-((methylsulfonyl)meth-yl)azetidine-1-carboxylate] yielded an EC50 of at most 50 nM.
The same measure for `COc1ccc(C23CCC(CN(c4cnnc(-c5cnn(C(C)C)c5)c4)C(=O)[C@H]4CC[C@H](OC(=O)N5CC(O)C5)CC4)(CC2)CC3)cc1C` [Compound 4.61, 4-((6-(1-Isopropyl-1H-pyrazol-4-yl)pyridazin-4-yl)((4-(4-methoxy-3-methylphenyl)bicyclo [2.2.2]octan-1-yl)methyl)carbamoyl)(trans-cyclohexyl) 3-hydroxyazetidine-1-carboxylate]: 50 to 1000 nM; for `COc1ccc(C23CCC(CN(c4cc(-c5cnn(C6CCCC6)c5)ccn4)C(=O)[C@H]4CC[C@H](OC(=O)N5CC(CO)C5)CC4)(CC2)CC3)cc1C` [Compound 23.09, 4-((4-(1-Cyclopentyl-1H-pyrazol-4-yl)pyridin-2-yl)((4-(4-methoxy-3-methylphenyl)bicyclo[2.2.2]octan-1-yl)methyl)carba-moyl)(trans-cyclohexyl) 3-(hydroxymethyl)azetidine-1-carboxylate]: at most 50 nM.
In turn, `COc1ccc(C23CCC(CN(c4cc(-c5coc(C(C)C)n5)ccn4)C(=O)[C@H]4CC[C@H](OC(=O)NC5COC5)CC4)(CC2)CC3)cc1C` [Compound 23.04, 4-((4-(2-Isopropyloxazol-4-yl)pyridin-2-yl)((4-(4-methoxy-3-methylphenyl)bicyclo[2.2.2]octan-1-yl)methyl)carbamoyl)(trans-cyclohexyl)oxetan-3-ylcarbamate] returned an EC50 of at most 50 nM.
The same measure for `COc1ccc([C@H]2CC[C@H](CN(c3cc(-c4cnn(C(C)C)c4)ccn3)C(=O)[C@H]3CC[C@H](OC(=O)N4CCOCC4)CC3)CC2)cc1C` [Compound 2.16, trans-4-((4-(1-Isopropyl-1H-pyrazol-4-yl)pyridin-2-yl)(((trans)-4-(4-methoxy-3-methylphenyl)cyclohexyl)methyl)carbamoyl)cyclohexyl morpholine-4-carboxylate]: at most 50 nM; for `COc1ccc(C23CCC(CN(c4cc(-c5cnn(C(F)(F)F)c5)ccn4)C(=O)[C@H]4CC[C@H](OC(=O)N5CC(O)C5)CC4)(CC2)CC3)cc1C` [Compound 4.19, 4-(((4-(4-Methoxy-3-methylphenyl)bicyclo [2.2.2]octan-1-yl)methyl) (4-(1-(trifluoromethyl)-1H-pyrazol-4-yl)pyridin-2-yl)carbamoyl) cyclohexyl 3-hydroxyazetidine-trans-1-carboxylate]: at most 50 nM.
Consider `COc1ccc([C@H]2CC[C@H](CN(c3cc(-c4cnn(C(C)C)c4)ccn3)C(=O)[C@H]3CC[C@H](OC(=O)NCC(C)(C)O)CC3)CC2)cc1Cl` [Compound 2.05, (trans)-4-((((trans)-4-(3-Chloro-4-methoxyphenyl)cyclohexyl)methyl)(4-(1-isopropyl-1H-pyrazol-4-yl)pyridin-2-yl)carbamoyl)cyclohexyl (2-hydroxy-2-methylpropyl)carbamate], for which the EC50 is at most 50 nM.
The molecule `COc1ccc([C@H]2CC[C@H](CN(c3cccc(-c4cnn(C(C)C)c4)c3)C(=O)[C@H]3CC[C@H](CNC(=O)C(C)C)CC3)CC2)cc1C` [Compound 12.02, (trans)-4-(Isobutyramidomethyl)-i-(3-(1-isopropyl-1H-pyrazol-4-yl)phenyl)-N-(((trans)-4-(4-methoxy-3-methylphenyl)cyclohexyl)methyl) cyclohexanecarboxamide] registered an EC50 of 50 to 1000 nM.
In the case of `COc1ccc([C@H]2CC[C@H](CN(c3cc(-c4cnc(C(C)C)s4)ccn3)C(=O)[C@H]3CC[C@H](OC(=O)N4CCN(C)CC4)CC3)CC2)cc1C` [Compound 2.40, trans-4-((4-(2-Isopropylthiazol-5-yl)pyridin-2-yl)((trans-4-(4-methoxy-3-methylphenyl)cyclohexyl)methyl)carbamoyl)cyclohexyl 4-methylpiperazine-1-carboxylate], the concentration giving a half-maximal response (EC50) was at most 50 nM.
The same measure for `COc1ncc([C@H]2CC[C@H](CN(c3cc(-c4cnn(C(C)C)c4)ccn3)C(=O)[C@H]3CC[C@H](OC(=O)N4CCN(C)CC4)CC3)CC2)cc1C` [Compound 1.05, trans-4-((4-(1-Isopropyl-1H-pyrazol-4-yl)pyridin-2-yl)(((trans)-4-(6-methoxy-5-methylpyridin-3-yl)cyclohexyl)methyl)carbamoyl) cyclohexyl 4-methylpiperazine-1-carboxylate]: 50 to 1000 nM.
The same measure for `CCc1nc(-c2ccnc(N(C[C@H]3CC[C@H](c4ccc(OC)c(C)c4)CC3)C(=O)[C@H]3CC[C@H](OC(=O)N4CCN(C)CC4)CC3)c2)co1` [Compound 2.48, trans-4-((4-(2-Ethyloxazol-4-yl)pyridin-2-yl)((trans-4-(4-methoxy-3-methylphenyl)cyclohexyl)methyl)carbamoyl)cyclohexyl 4-methylpiperazine-1-carboxylate]: 50 to 1000 nM; for `CC(C)n1cc(-c2ccnc(N(CC34CCC(C5CCCCC5)(CC3)CC4)C(=O)[C@H]3CC[C@H](OC(=O)N4CC(O)C4)CC3)c2)cn1` [Compound 26.15, 4-(((4-Cyclohexylbicyclo[2.2.2]octan-1-yl)methyl)(4-(1-isopropyl-1H-pyrazol-4-yl)pyridin-2-yl)carbamoyl)cyclohexyl trans-3-hydroxyazetidine-1-carboxylate]: at most 50 nM.
The same measure for `COc1ccc(C23CCC(CN(c4cc(-n5ccc(C(C)C)n5)ccn4)C(=O)[C@H]4CC[C@H](OC(=O)N5CC(O)C5)CC4)(CC2)CC3)cc1C` [Compound 23.15, 4-((4-(3-Isopropyl-1H-pyrazol-1-yl)pyridin-2-yl)((4-(4-methoxy-3-methylphenyl)bicyclo[2.2.2]octan-1-yl)methyl)carbamoyl)cyclo-hexyl trans-3-hydroxyazetidine-1-carboxylate]: at most 50 nM; for `COc1ccc([C@H]2CC[C@H](CN(c3cc(-c4cnn(C(C)C)c4)ccn3)C(=O)[C@H]3CC[C@H](OC(=O)NC[C@@H](F)CF)CC3)CC2)cc1C` [Compound 2.32, trans-4-((4-(1-Isopropyl-1H-pyrazol-4-yl)pyridin-2-yl)(((trans)-4-(4-methoxy-3-methylphenyl)cyclohexyl)methyl)carbamoyl) cyclohexyl((R)-2,3-difluoropropyl)carbamate]: at most 50 nM.
The molecule `COc1ccc(C23CCC(CN(c4cc(-c5cnc(C(C)C)s5)ccn4)C(=O)[C@H]4CC[C@H](OC(=O)N5CC(O)C5)CC4)(CC2)CC3)cc1C` [Compound 4.21, 4-((4-(2-Isopropylthiazol-5-yl)pyridin-2-yl)((4-(4-methoxy-3-methylphenyl)bicyclo[2.2.2]octan-1-yl)methyl)carbamoyl) cyclohexyl 3-hydroxyazetidine-trans-1-carboxylate] displayed an EC50 of at most 50 nM.
For the molecule `COc1ccc([C@H]2CC[C@H](CN(c3cccc(-c4cnn(C(C)C)c4)c3)C(=O)[C@H]3CC[C@H](NC(=O)C(C)C)CC3)CC2)cc1C` [Compound 10.06, trans-4-Isobutyramido-N-(3-(1-isopropyl-1H-pyrazol-4-yl)phenyl)-N-((trans-4-(4-methoxy-3-methylphenyl)cyclohexyl)methyl) cyclohexanecarboxamide], the EC50 is at most 50 nM.
Molecule `COc1ccc(C23CCC(CN(c4cc(-c5cnn(C(C)C)c5)ccc4F)C(=O)[C@H]4CC[C@H](OC(=O)N5CC(O)C5)CC4)(CC2)CC3)cc1C` [Compound 25.03, 4-((2-Fluoro-5-(1-isopropyl-1H-pyrazol-4-yl)phenyl)((4-(4-methoxy-3-methylphenyl)bicyclo[2.2.2]octan-1-yl)methyl)carbamoyl)cyclohexyl trans-3-hydroxyazetidine-1-carboxylate] returned an EC50 of at most 50 nM.
